Biological target: T1, FVIIa (Homo sapiens, UniProt P08709)
T1 construct: FVIIa (ADI#407, final 10 nM); purchased ADI #407 (FVIIa); #4500 (tissue factor)
Assay: FVIIa inhibitory activity (chromogenic substrate S-2288, FVIIa/tissue factor)
Type: biochemical
Settings: FVIIa 10 nM, tissue factor 10 nM, 2 mM CaCl2, 0.5 mM S-2288, 37° C., pH 7.5
Method: 10 μl of the compound of the present invention in 10% DMSO were added to 65 μl of the buffer solution including FVIIa (ADI#407, final 10 nM), tissue factor (ADI#4500, final 10 nM) and calcium chloride. The mixture was incubated for 10 minutes at 37° C., then 25 μl of 2 mM H-D-Ile-Pro-Arg-pNA (Chromogenix S-2288) was added (total volume 100 μl). The absorbance was measured at 405 nm at regular time intervals, and an initial velocity was calculated. The control value was measured with 10% of DMSO. Inhibitory activity was expressed as a 50% inhibition of control (IC50).
The final concentration of calcium chloride and S-2288 were 2 mM and 0.5 mM respectively. The buffer solution consisted of 50 mM tris-hydrochloric acid buffer (pH 7.5) containing 0.2% PEG6000 and 150 mM sodium chloride.

T1 sequence (P08709 213-466 limits assumed): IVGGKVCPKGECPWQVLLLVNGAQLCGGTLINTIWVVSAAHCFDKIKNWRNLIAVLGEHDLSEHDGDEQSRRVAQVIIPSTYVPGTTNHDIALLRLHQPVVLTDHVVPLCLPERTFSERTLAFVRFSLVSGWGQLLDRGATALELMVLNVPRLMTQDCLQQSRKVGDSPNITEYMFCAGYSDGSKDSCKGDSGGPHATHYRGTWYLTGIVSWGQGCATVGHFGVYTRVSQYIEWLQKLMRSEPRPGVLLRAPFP
T1 sequence (P08709 61-212 limits assumed): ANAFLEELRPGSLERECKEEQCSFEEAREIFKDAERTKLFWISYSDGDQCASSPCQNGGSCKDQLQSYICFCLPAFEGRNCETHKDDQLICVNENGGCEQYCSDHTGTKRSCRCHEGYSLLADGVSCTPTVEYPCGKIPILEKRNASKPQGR
T1 sequence (P13726 33-295 partner): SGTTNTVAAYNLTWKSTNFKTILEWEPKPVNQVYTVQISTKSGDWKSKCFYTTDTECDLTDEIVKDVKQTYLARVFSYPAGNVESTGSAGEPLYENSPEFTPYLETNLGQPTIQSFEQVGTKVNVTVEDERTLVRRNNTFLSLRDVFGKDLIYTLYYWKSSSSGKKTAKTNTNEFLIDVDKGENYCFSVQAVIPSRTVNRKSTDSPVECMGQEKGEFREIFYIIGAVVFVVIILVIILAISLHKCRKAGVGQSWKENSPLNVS

Row | IC50 | Structure (SMILES)
1 | 12 nM | CC(C)CNC(=O)c1ccc(-c2cc3ccccc3cc2C(=O)Nc2ccc(C(=N)N)cc2)c(C(=O)O)c1 [Example 19(47), 2-(3-(4-amidinophenylcarbamoyl)naphthalen-2-yl)-5-((2-methylpropyl)carbamoyl)benzoic acid methanesulfonate]
2 | 13 nM | COc1ccc(-c2ccc(C(=O)N[C@H](CO)C(C)(C)C)cc2C(=O)O)c(C(=O)Nc2ccc(C(=N)N)cc2)n1 [Example 46, 2-[2-(4-amidinophenylcarbamoyl)-6-methoxy-3-pyridyl]-5-[(1(S)-hydroxymethyl-2,2-dimethylpropyl)carbamoyl]benzoic acid methanesulfonate]

Reference: patent US6358960B1, “Amidino derivatives and drugs containing the same as the active ingredient” (Ono Pharmaceutical Co., Ltd., priority 1998, dated 2002)
